Measured values as given in paper PMC4491657, “Design and Synthesis of Novel N-Arylsulfonyl-3-(2-yl-ethanone)-6-methylindole Derivatives as Inhibitors of HIV-1 Replication” (Pharmaceuticals, 2015).

Key:
[1] = MTT-based cytotoxicity assay; conditions: human, C8166 cells, concentration that causes 50% reduction in total C8166 cell number, means of two separate experiments, read-out: CC50 (50% cytotoxic concentration)
Procedure: (§1) Cell line (C8166) and the laboratory-derived virus (HIV-1 IIIB) were obtained from the MRC, AIDS Reagent Project, London, UK. C8166 was maintained in RPMI-1640 supplemented with 10% heat-inactivated new born calf serum (Gibco, USA). The cells used in all experiments were in log-phase growth. The 50% HIV-1 IIIB tissue culture infectious dose (TCID50) in C8166 cells was determined and calculated by the Reed and Muench method. Virus stocks were stored in small aliquots at −70 °C [11].
Cellular toxicity of compounds 4a–f and 6 on C8166 cells was assessed by the MTT method as described previously. Briefly, cells were seeded on 96-well microtiter plate in the absence or presence of various concentrations of compounds in triplicate and incubated at 37 °C in a humid atmosphere of 5% CO2 for 3 days. The supernatants were discarded and MTT reagent (5 mg/mL in PBS) was added to each wells, then incubated for 4 h, 100 μL of 50% DMF-20% SDS was added. After the formazan was dissolved completely, the plates were read on a Bio-TekElx800 ELISA reader at 595/630 nm. The cytotoxic concentration that caused the reduction of viable C8166 cells by 50% (CC50) was determined from dose-response curve.

HIV-1 IIIB = assay: Syncytia assay (anti-HIV-1 activity in acutely infected C8166 cells); format: cell-based; conditions: Human immunodeficiency virus 1, 72 h; concentration that reduces syncytia formation by 50%; C8166 cells infected with HIV-1 IIIB, M.O.I 0.06, 3 days; means of two separate experiments; read-out: EC50 (50% effective concentration)
Procedure: as §1
In the presence of 100 μL of various concentrations of compounds, C8166 cells (4 × 10^5/mL) were infected with virus HIV-1IIIB at a multiplicity of infection (M.O.I) of 0.06. The final volume per well was 200 μL. Control assays were performed without the testing compounds in HIV-1IIIB infected and uninfected cultures. After 3 days of culture, the cytopathic effect (CPE) was measured by counting the number of syncytia. Percentage inhibition of syncytia formation was calculated and 50% effective concentration (EC50) was calculated. AZT (Sigma, USA) was used as a positive control. Therapeutic index (TI) = CC50/EC50 [13].

Structure (SMILES) | melting point [°C] | CC50 at 3 days [1] [µM] | EC50 (HIV-1 IIIB) [µM]
Cc1ccc2c(C(=O)CN3CCCCC3)cn(S(=O)(=O)c3ccccc3)c2c1 [Compound 4a, N-Phenylsulfonyl-3-[2-piperidinylethanone]-6-methylindole] | 132 to 134 | > 504 | 32.8
CCCCNCC(=O)c1cn(S(=O)(=O)c2ccccc2)c2cc(C)ccc12 [Compound 4e, N-Phenylsulfonyl-3-[2-butylaminoethanone]-6-methylindole] |  | 43.8 | 30
CCc1ccc(S(=O)(=O)n2cc(C(=O)CSc3nnc(-c4ccccc4)o3)c3ccc(C)cc32)cc1 [Compound 6, N-(p-Ethyl)phenylsulfonyl-3-[2-(5-phenyl-1,3,4-oxadiazole-2-yl-thio)ethanone]-6-methylindole] | 122 to 124 | 309 | 4.62
CCc1ccc(S(=O)(=O)n2cc(C(=O)CN3CCOCC3)c3ccc(C)cc32)cc1 [Compound 4f, N-(p-Ethyl)phenylsulfonyl-3-[2-morpholinoethanone]-6-methylindole] |  | > 469 | 9.42
Cc1cn([C@H]2C[C@H](N=[N+]=[N-])[C@@H](CO)O2)c(=O)[nH]c1=O [AZT, 3'-azido-3'-deoxythymidine, reference compound] |  | 4260 | 0.0121
Cc1ccc2c(C(=O)CN3CCCC3)cn(S(=O)(=O)c3ccccc3)c2c1 [Compound 4c, N-Phenylsulfonyl-3-[2-pyrrolidinoethanone]-6-methylindole] | 124 to 126 | 226 | 106
Cc1ccc2c(C(=O)CN3CCOCC3)cn(S(=O)(=O)c3ccccc3)c2c1 [Compound 4b, N-Phenylsulfonyl-3-[2-morpholinoethanone]-6-methylindole] | 174 to 176 | > 502 | 56.6
Cc1ccc2c(C(=O)CN(C(C)C)C(C)C)cn(S(=O)(=O)c3ccccc3)c2c1 [Compound 4d, N-Phenylsulfonyl-3-[2-diisopropylaminoethanone]-6-methylindole] |  | 220 | 17.9
